Article PMC9181126, “Design, Synthesis, Molecular Docking Analysis and Biological Evaluations of 4-[(Quinolin-4-yl)amino]benzamide Derivatives as Novel Anti-Influenza Virus Agents” (International Journal of Molecular Sciences, 2022)

Tests used:
A/WSN/33, H1N1 = test system: A/WSN/33, H1N1; design: method as in PMID 25333287; conditions: cited from earlier work
[1] = target: ribonucleoprotein (RNP) of influenza virus (Influenza A virus, UniProt P15659); experiment: cell-based; conditions: HEK-293T, read-out: RNP Reconstitution Assay Inhibition Rate; for inhibition at 100 µM: concentration 100 µM
[2] = test system: influenza virus A/WSN/33 (H1N1); experiment: microbe, parasite or virus in culture; assay type: cell-based; conditions: MDCK, 72 h; for inhibition at 12.5 µM / inhibition at 25 µM / inhibition at 50 µM / inhibition at 100 µM: H1N1|WSN, read-out: Antiviral activity in CPE assay; for EC50: read-out: Cytopathic Effect Assay (A/WSN/33, H1N1) EC50
MDCK cells = experiment: in vitro; assay type: cell-based, canine; conditions: dog, 72 h
Procedure, shortened: (§1)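 Cells were seeded and compound medium added after 48 h, then incubated 72 h at 37 °C, 5% CO2. Viability was measured by MTT (4 h), then solubilization and absorbance at 620 nm after a further 3 h. DMSO-only wells were taken as 100% viable.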

in vitro [3] = assay type: cell-based, canine; conditions: dog
Procedure, shortened: as §1

influenza B virus = experiment: Plaque inhibition assay in MDCK cells; assay type: cell-based
A/PR/8 (H1N1) = experiment: Plaque inhibition assay in MDCK cells; assay type: cell-based; conditions: Influenza A virus
A/HK/68 (H3N2) = experiment: Plaque inhibition assay in MDCK cells; assay type: cell-based; conditions: Influenza A virus
HEK293T cells = experiment: in vitro; assay type: cell-based; conditions: human, 72 h
Procedure, shortened: as §1

in vitro [4] = assay type: cell-based; conditions: human
Procedure, shortened: as §1

[5] = test system: influenza virus A/WSN/33 (H1N1); experiment: Plaque inhibition assay in MDCK cells; assay type: cell-based; conditions: for IC50: MDCK cells; for inhibition at 100 µM: MDCK, concentration 100 µM, read-out: Plaque Inhibition Assay (A/WSN/33, H1N1) Inhibition Rate

Compound | inhibition at 100 µM [1] [%] | inhibition at 12.5 µM [2] [%] | inhibition at 25 µM [2] [%] | inhibition at 50 µM [2] [%] | inhibition at 100 µM [2] [%] | EC50 [2] [µM] | MDCK cells survival rate (MDCK cells; 12.5 µmol·L−1) [%] | MDCK cells survival rate (MDCK cells; 25 µmol·L−1) [%] | MDCK cells survival rate (MDCK cells; 50 µmol·L−1) [%] | MDCK cells survival rate (MDCK cells; 100 µmol·L−1) [%] | CC50 at 72 h (in vitro [3]) [µM] | HEK293T cells survival rate (HEK293T cells; 3.125 µmol·L−1) [%] | HEK293T cells survival rate (HEK293T cells; 6.25 µmol·L−1) [%] | HEK293T cells survival rate (HEK293T cells; 12.5 µmol·L−1) [%] | HEK293T cells survival rate (HEK293T cells; 25 µmol·L−1) [%] | HEK293T cells survival rate (HEK293T cells; 50 µmol·L−1) [%] | HEK293T cells survival rate (HEK293T cells; 100 µmol·L−1) [%] | CC50 at 72 h (in vitro [4]) [µM] | inhibition at 100 µM [5] [%] | melting point [°C] | further results
CCN(CC)Cc1cc(Nc2ccnc3cc(Cl)ccc23)ccc1O [amodiaquine] | – | – | – | – | – | – | – | – | – | – | – | – | – | – | – | – | – | – | – | – | EC50 (A/WSN/33, H1N1): 6.3 µM
COc1ccccc1OCCNC(=O)c1ccc(Nc2ccnc3cc(C(F)(F)F)ccc23)cc1 [Compound G07, N-[2-(2-Methoxyphenoxy)ethyl]-4-{[7-(trifluoromethyl)quinolin-4-yl]amino}benzamide] | 80.7 | 61.4 ± 6.86 | 78.2 ± 8.28 | 107 ± 2.43 | 112 ± 4.3 | 11.4 ± 1.89 | 140.55±9.82 | 115.87±11.06 | 256.24±17.89 | 115.75±5.12 | > 100 | 106.60±2.14 | 97.91±1.23 | 91.58±3.34 | 87.01±2.19 | 90.17±2.90 | 81.39±7.21 | > 100 | 95.9 | – | IC50 (influenza B virus): 11 ± 1.16 µM; IC50 (A/PR/8 (H1N1)): 11.4 ± 2.38 µM; IC50 (A/HK/68 (H3N2)): 7.51 ± 1.76 µM; IC50 [5]: 0.23 ± 0.15 µM
COc1ccccc1OCCNC(=O)c1ccc(Nc2ccnc3cc(OC(F)(F)F)ccc23)cc1 [Compound G22, N-[2-(2-Methoxyphenoxy)ethyl]-4-{[7-(trifluoromethoxy)quinolin-4-yl]amino}benzamide] | 43.9 | 112 ± 6.15 | 108 ± 8.75 | 106 ± 5.94 | 97.4 ± 10.2 | < 10 | 95.78±2.47 | 99.56±3.73 | 104.22±9.18 | 118.12±6.49 | > 100 | 117.25±6.52 | 103.91±6.77 | 91.65±2.90 | 89.97±4.08 | 88.83±5.80 | 86.07±5.65 | > 100 | 20 | 229.5 to 230.7 | –
CCNC(=O)c1ccc(Nc2ccnc3cc(C(F)(F)F)ccc23)cc1 [Compound G01, N-Ethyl-4-{[7-(trifluoromethyl)quinolin-4-yl]amino}benzamide] | 21 | 48 ± 4.04 | 56.6 ± 3.96 | 53 ± 4.28 | 70.9 ± 2.63 | 16.5 ± 5.57 | 123.45±5.51 | 112.08±3.35 | 121.65±8.73 | 160.62±4.70 | > 100 | 91.00±7.40 | 90.01±2.87 | 93.22±5.27 | 92.83±4.26 | 88.18±3.27 | 94.92±8.61 | > 100 | 81.6 | 262.8 to 264.5 | –
NC12CC3CC(CC(C3)C1)C2 [amantadine, reference compound] | – | – | – | – | – | – | – | – | – | – | – | – | – | – | – | – | – | – | – | – | IC50 (influenza B virus): > 100 µM; IC50 (A/PR/8 (H1N1)): 64.2 ± 7.21 µM; IC50 (A/HK/68 (H3N2)): 2.22 ± 0.57 µM; IC50 [5]: > 100 µM
COc1ccccc1OCCNC(=O)c1ccc(Nc2ccnc3ccccc23)cc1 [Compound G19, N-{2-(2-Methoxyphenoxy)ethyl}-4-(quinolin-4-ylamino)benzamide] | 13.9 | 131 ± 11.1 | 132 ± 4.75 | 138 ± 9.95 | 122 ± 5.08 | < 10 | 90.89±5.31 | 93.23±8.08 | 102.17±1.95 | 111.55±9.83 | > 100 | 103.14±6.28 | 103.54±9.29 | 103.11±7.45 | 97.97±3.74 | 97.40±3.36 | 112.18±7.45 | > 100 | 82.3 | 319.5 to 320.2 | –
O=C(c1ccc(Nc2ccnc3cc(C(F)(F)F)ccc23)cc1)N1CCOCC1 [Compound G12, Morpholino{4-{[7-(trifluoromethyl)quinolin-4-yl]amino}phenyl}methanone] | 50 | 70.9 ± 4.82 | 97.6 ± 3.67 | 75.7 ± 9.49 | 76.7 ± 5.27 | > 100 | 92.77±4.37 | 137.81±3.21 | 130.46±5.65 | 120.48±10.37 | > 100 | 100.47±5.92 | 89.50±2.30 | 86.67±6.98 | 88.50±7.54 | 80.68±3.36 | 74.00±4.57 | > 100 | < 10 | 277.9 to 278.7 | –
COc1ccccc1OCCNC(=O)c1ccc(Nc2ccnc3cc([N+](=O)[O-])ccc23)cc1 [Compound G23, N-[2-(2-Methoxyphenoxy)ethyl]-4-[(7-nitroquinolin-4-yl)amino]benzamide] | 56.6 | 146 ± 3.38 | 143 ± 6.11 | 119.8 ± 0.68 | 119 ± 7.71 | < 10 | 101.22±6.39 | 106.22±9.35 | 100.33±3.53 | 91.28±3.45 | > 100 | 93.57±3.31 | 96.34±4.31 | 95.29±3.05 | 89.02±3.47 | 96.62±7.74 | 88.11±4.02 | > 100 | 77.9 | 217 to 218.5 | –
O=C(c1ccc(Nc2ccnc3cc(C(F)(F)F)ccc23)cc1)N1CCN(c2ccc(Cl)cc2)CC1 [Compound G17, [4-(4-Chlorophenyl)piperazin-1-yl]{4-{[7-(trifluoromethyl)quinolin-4-yl]amino}phenyl}methanone] | – | 33.5 ± 1.23 | 27.3 ± 3.16 | 21.1 ± 1.62 | 28.5 ± 7.81 | > 100 | 71.49±1.03 | 65.78±1.15 | 63.22±11.25 | 51.32±5.29 | > 100 | 86.81±4.81 | 89.66±6.31 | 78.02±11.06 | 62.61±12.04 | 52.36±1.02 | 59.17±1.33 | > 100 | 73.5 | 242 to 242.9 | inhibition at 12.5 µM ([1]; concentration 12.5 µM): 40.2%
